Data from patent publication US20150374784A1, “COMPOSITIONS AND METHODS FOR REDUCING GERM CELL DEATH” (Los Angeles Biomedical Research Institute at Harbor-UCLA …, priority 2014, published 2015).

Experiments:
germ cells = test: HNG on CP-induced germ cell apoptosis in mice, 24 hours (Example 6); type: in vivo, mouse; conditions: CP 200 mg/kg/BW IP, HNG 5 mg/kg/BW IP
Protocol: To examine the protective effects of HNG on germ cells, adult mice were treated with vehicle (control); HNG (5 mg/kg/BW, intraperitoneal injection IP); CP (200 mg/kg/BW, IP); and CP+HNG for 24 hours.

[1] = test system: phosphorylated-AMPK (p-AMPK); test: Immunohistochemistry of lung metastases: p-AMPK; type: in vivo, mouse; conditions: mean±SD; CP 200 mg/kg single IP; HNG 5 mg/kg daily IP 14 days
Protocol: Methods: Adult male mouse (n=5/group) were seeded with mouse B16 melanoma cells (100,000 cells/mouse) via tail vein on day 1. One week after melanoma cell inoculation, mice were treated either with a single intraperitoneal injection (IP) of CP (200 mg/kg), or daily IP injections of HNG (5 mg/kg), or both for 14 days. Mice were sacrificed at day 21 and lungs were fixed in formaldehyde. Immunohistochemistry was performed on lung metastases with antibodies against phosphorylated-AMPK (p-AMPK), p-4E-BP1 (downstream effector of mTOR) and Ki-67 antigen (a marker of cell proliferation).

Leydig cells = test: Testosterone of cultured Leydig cells treated with ketoconazole; type: cell-based, rat; conditions: HN 10 mcg/ml + KTZ 10 mcg/ml, 4 hours
Protocol: Leydig cells were isolated based on a previously described procedure (Gao, et al., 1996; Klinefelter, et al., 1987; Salva, et al., 2001). Briefly, the testes were decapsulated, and then dissociated with collagenase, dispase, DNase and shaking for 15 min at 34° C. The seminiferous tubules were removed by filtration through 40 μm nylon mesh (BD Falcon, Franklin Lakes, N.J.). Leydig cells were then harvested after centrifugation and purified using a Percoll gradient (GE Healthcare, Uppsala, Sweden) and centrifugation (60 minutes at 20,000 g at 4° C.). Enriched Leydig cells were harvested at densities between 1.065 (red) and 1.075 (blue) g/cm^3 from the percoll gradient. These Leydig cells were washed by diluting the percoll and excluding residual germ cells and other cells using a BSA density gradient with centrifugation. The purity of the Leydig cells was >90%, as determined by histochemical staining for 3β-hydroxysteroid dehydrogenase. The cell viability, as assessed by trypan blue exclusion, was greater than 90%. […]
Testosterone concentrations in plasma, testes, and culture medium were measured by a previously described radioimmunoassay (Lue, et al., 2010) with a minimal detection limit of 0.1 ng/ml. […]

[2] = test system: germ cells in seminiferous tubules; test: Germ cell apoptosis in mouse seminiferous tubule cultures ex vivo (TUNEL); type: cell-based
Protocol: A total of 15 young adult (12-13 week-old) mice were used for these ex vivo studies. The animals were sacrificed with a 5% pentobarbital (200 mg/Kg) IP injection. Testes were dissected and after removing the tunica albuginea, seminiferous tubules isolated from testes were cut into small segments under a dissecting microscope and light and dark segments were separated by dissection. Ten to twelve segments were placed (2 mm in length) in each well on a six well plate with 2 ml serum free Ham F-10 culture medium (GIBCO, Life Technologies, Thermo Fisher Scientific Corp., Carlsbad, Calif.) with the following treatments: control (Con, n=10), heat (43° C., 15 minutes, used as a positive control, n=10); HN 10 μg/mL (n=9); DOX 10 mcM (Dox10, n=10); and DOX 10 mcM+Humanin 10 μg/mL (Dox10+HN, n=10). For these experiments, n represents the total number of times the treatment was repeated using different animals. After 12 hours of incubation at 34° C. the seminiferous tubules from each treatment group were used to make “squashed” seminiferous tubule samples on a slide for TUNEL (TdT-mediated dUTP nick-end labeling) assay to detect germ cell apoptosis (Erkkila, et al., 1997; Toppari & Parvinen, 1985). To quantify the rate of germ cell apoptosis under a light microscope at 400× magnification, a square grid fitted within the eyepiece provided a reference area of 62,500 μm^2. The TUNEL positive apoptotic germ cells within the frame of grid were counted in 4 segments of seminiferous tubules in each group. The incidence of germ cell apoptosis was expressed as the number of apoptotic germ cells per mm^2.
A total of 15 mice were used for ex vivo studies. The animals were sacrificed and seminiferous tubules isolated from testes were cut into small segments under a dissecting microscope to identify light (early stages I-IV and late stages XI-XII) of the seminiferous epithelium) and dark (middle stages VII-VIII) segments. Ten to twelve light segments (2 mm in length) were placed per well on a six well plate with 2 ml serum free medium of F-10 Ham nutrient mixture (Gibco, Life Technologies, Grand Island, N.Y.) following these treatments: control (Con, n=15 where n is the number of times the treatment was repeated with segments obtained from different donor animals), heat (43° C., 15 min.; used as a positive control, n=10), HN 10 μg/mL (HN, n=9), doxorubicin 1 μM (Dox1, n=7), doxorubicin 1 μM+HN 10 μg/mL (Dox1+HN, n=7), doxorubicin 10 μM (Dox10, n=10), and doxorubicin 10 μM+HN 10 μg/mL (Dox10+HN, n=10). After 12 hours of incubation at 34° C. with 5% CO2, the seminiferous tubules from the seven treatment groups were used to make “squashed” seminiferous tubule preparations on a slide for TUNEL assay to detect germ cell apoptosis (Erkkila K, et al., 1997). To quantify the rate of germ cell apoptosis, the squashed segments of seminiferous tubules were examined with an American Optical Microscope (Scientific Instruments, Buffalo, N.Y.) with a 40×objective and a 10×eyepiece lens. A square grid fitted within the eyepiece provided a reference area of 62,500 μm^2. The TUNEL positive apoptotic germ cells within the frame of grid were counted in 4 segments of seminiferous tubules in each group. The incidence of germ cell apoptosis was expressed as the number of apoptotic germ cells per mm^2.

Molecule | germ cell apoptosis (apoptotic index) (germ cells) | percent p-AMPK positive cells in metastatic lung melanoma [1] [%] | KTZ induced decrease in testosterone production by Leydig cells (Leydig cells) | number of apoptotic germ cells induced by DOX ([2]; HN 10 μg/mL + DOX 10 μM, 12 hours) | apoptosis induced by low dose doxorubicin ([2]; HN 10 μg/mL + doxorubicin 1 μM, 12 hours) | germ cell apoptosis, HN treatment alone compared with control ([2]; HN 10 μg/mL, 12 hours ex vivo culture) | heat induced germ cell apoptosis ([2]; HN 10 μg/mL, heat 43° C., 15 min)
O=P1(N(CCCl)CCCl)NCCCO1 (stereo not shown) [CP, cyclophosphamide monohydrate] | significantly increased germ cell apoptosis in all stages of spermatogenesis | 11.3±15.6 | – | – | – | – | –
MAPRGFSCLLLLTSEIDLPVKRRA [HN, 24-amino acid mitochondrial derived peptide] | – | – | did not salvage the KTZ induced decrease in testosterone production | significantly reduced the number of apoptotic germ cells | did not significantly decrease apoptosis | had no significant effect on germ cell apoptosis | prevented the heat induced germ cell apoptosis
